Measured values as given in article PMC9928118, “Funneling modulatory peptide design with generative models: Discovery and characterization of disruptors of calcineurin protein-protein interactions” (PLOS Computational Biology, 2023).
Values belong to the sequence of their own block, whether it stands above or below them.

Test system: GST-tagged Cn
Test: PEPperPRINT peptide microarray binding assay with GST-tagged Cn
Method in brief: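 Qualitative binding: peptides printed on a PEPperPRINT microarray were incubated overnight at 4 °C with 1 mg/ml GST-tagged Cn, then detected with Alexa-Fluor 647 anti-GST antibody. Log fluorescence was baseline-corrected, averaged over duplicate spots, Z-normalized and averaged across five repeats.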

[1] = GST-tagged Cn, max over the chip spots listed under Location on chip
[2] = GST-tagged Cn, mean over the chip spots listed under Location on chip
[3] = GST-tagged Cn, max over the chip locations
[4] = GST-tagged Cn, mean over the chip locations
[5] = GST-tagged Cn, max over the spots named in Location on chip
[6] = GST-tagged Cn, mean over the spots named in Location on chip
[7] = max over the chip locations listed for the peptide (two spots)
[8] = mean over the chip locations listed for the peptide (two spots)
[9] = max over the spots listed under Location on chip
[10] = mean over the spots listed under Location on chip
[11] = GST-tagged Cn, max over the spots on the chip (two locations)
[12] = GST-tagged Cn, mean over the spots on the chip (two locations)

Chip Fluorescence (max) [7]: 7.538 | Chip Fluorescence (mean) [8]: 1.227
Sequence: SNSTNPEITITPAELC [SeqRIPOR2_Tarsius_syrichta]

Chip Fluorescence (max) [1]: 0.5427 | Chip Fluorescence (mean) [2]: -0.6454
Sequence: VEYDKVWKVAQFVNKC [Seqrandom_9995]

Chip Fluorescence (max) [9]: 2.669 | Chip Fluorescence (mean) [10]: -0.6649
Sequence: STASLPTFSFSPLAPS [SeqRBMlowT_9999]

Chip Fluorescence (max) [1]: 0.8078 | Chip Fluorescence (mean) [2]: -0.09052
Sequence: KDKAGKRSHLKGHSES [Seqshuffled_5410]

Chip Fluorescence (max) [1]: 0.8908 | Chip Fluorescence (mean) [2]: 0.2837
Sequence: PMLVFRALRIHESPLP [Seqshuffled_9670]

Chip Fluorescence (max) [9]: 3.109 | Chip Fluorescence (mean) [10]: 0.4888
Sequence: YRDSWVTACQKIQSKI [Seqrandom_9988]

Chip Fluorescence (max) [5]: 1.401 | Chip Fluorescence (mean) [6]: -0.4076
Sequence: VEEAFPQIIISAEELP [SeqTRESK_Tarsius_syrichta]

Chip Fluorescence (max) [11]: 1.229 | Chip Fluorescence (mean) [12]: -0.4106
Sequence: RNPGTFPLTLEGHKKQ [SeqRBMlowT_6333]

Chip Fluorescence (max) [1]: 0.7857 | Chip Fluorescence (mean) [2]: -0.5033
Sequence: KVTTLKSVSPAIAAPE [Seqshuffled_1741]

Chip Fluorescence (max) [5]: 1.453 | Chip Fluorescence (mean) [6]: -0.5656
Sequence: NAWKNPGQETHTTKKL [Seqshuffled_9929]

Chip Fluorescence (max) [5]: 1.846 | Chip Fluorescence (mean) [6]: 0.06645
Sequence: TPVSDHNFALDVSGKP [Seqshuffled_9616]

Chip Fluorescence (max) [11]: 1.277 | Chip Fluorescence (mean) [12]: -0.2851
Sequence: GGPGTPGRQGGHLAPS [SeqRBMlowT_9820]

Chip Fluorescence (max) [7]: 15.2815 | Chip Fluorescence (mean) [8]: 4.411
Sequence: LTWTSLRYSVNDDKNT [Seqshuffled_9363]

Chip Fluorescence (max) [1]: 0.9511 | Chip Fluorescence (mean) [2]: 0.1118
Sequence: SRPLDEEGAMAPTLAN [SeqRIPOR2_Propithecus_coquereli]

Chip Fluorescence (max) [11]: 1.31 | Chip Fluorescence (mean) [12]: -0.01046
Sequence: GVHSCPALSVDRPQNQ [Seqshuffled_9565]

Chip Fluorescence (max) [1]: 0.8809 | Chip Fluorescence (mean) [2]: -0.1421
Sequence: LVWDNGSYTGRTIKAP [Seqshuffled_9818]

Chip Fluorescence (max) [9]: 2.848 | Chip Fluorescence (mean) [10]: -0.8116
Sequence: STKSSGRPSRSPERAS [SeqRGA2_Colletotrichum_sublineola]

Chip Fluorescence (max) [9]: 2.666 | Chip Fluorescence (mean) [10]: -0.09775
Sequence: TFWTNPQYKITLEEDD [SeqRBMlowT_9018]

Chip Fluorescence (max) [5]: 1.532 | Chip Fluorescence (mean) [6]: -0.902
Sequence: RSYVNPAYSFTFDSKA [SeqSFB3_Lachancea_meyersii]

Chip Fluorescence (max) [7]: 4.236 | Chip Fluorescence (mean) [8]: -0.3717
Sequence: GDPITVTFSFKQQSIR [Seqshuffled_9986]

Chip Fluorescence (max) [11]: 1.275 | Chip Fluorescence (mean) [12]: 0.3801
Sequence: KVRTALYFTWNLTERG [Seqshuffled_9698]

Chip Fluorescence (max) [1]: 0.9057 | Chip Fluorescence (mean) [2]: -0.476
Sequence: VACITWAAMLIIFSMV [Seqrandom_9980]

Chip Fluorescence (max) [5]: 1.524 | Chip Fluorescence (mean) [6]: -0.1169
Sequence: FSMLIGMHEPHPNTTI [Seqrandom_9971]

Chip Fluorescence (max) [9]: 3.254 | Chip Fluorescence (mean) [10]: 0.9673
Sequence: TFWSNPQYKITLEEPD [SeqRBMlowT_9677]

Chip Fluorescence (max) [11]: 1.299 | Chip Fluorescence (mean) [12]: -0.4919
Sequence: LEAAPPDPDRKPPNII [Seqshuffled_9311]

Further lines, the sequence ahead of its results:

Sequence: DSHTVDPIPINPHSAV [SeqRBM_5538]
Chip Fluorescence (max) [1]: 0.9715 | Chip Fluorescence (mean) [2]: -0.655

Sequence: TEWNNPQQIVGPTEGD [SeqRBM_3582]
Chip Fluorescence (max) [3]: 0.1516 | Chip Fluorescence (mean) [4]: -1.002

Sequence: STSSLPTFSFSPPAPS [SeqRBMlowT_2355]
Chip Fluorescence (max) [5]: 1.468 | Chip Fluorescence (mean) [6]: -0.4662

Sequence: RNPGTALLELRGHSAS [SeqRBMlowT_6200]
Chip Fluorescence (max) [9]: 2.68 | Chip Fluorescence (mean) [10]: 1.087

Sequence: TFWTNPQFKVSLEEED [SeqRBMlowT_1125]
Chip Fluorescence (max) [9]: 2.918 | Chip Fluorescence (mean) [10]: 1.097

Sequence: KSKAAPSIVIHIPEEA [SeqRBM_8661]
Chip Fluorescence (max) [5]: 1.362 | Chip Fluorescence (mean) [6]: 0.2601

Sequence: KRYWKPQFKFGTQVSE [SeqRBM_7919]
Chip Fluorescence (max) [5]: 1.674 | Chip Fluorescence (mean) [6]: -0.01942

Sequence: REYINPKMHFHFLNTV [SeqRBM_9087]
Chip Fluorescence (max) [5]: 1.764 | Chip Fluorescence (mean) [6]: -0.3424

Sequence: FSNKASKARRMEPLSI [SeqRBM_824]
Chip Fluorescence (max) [11]: 1.106 | Chip Fluorescence (mean) [12]: -0.01462

Sequence: KAYMNPFMQFIDGGRR [SeqRBMlowT_560]
Chip Fluorescence (max) [7]: 4.3098 | Chip Fluorescence (mean) [8]: 0.3269

Sequence: TFWTNPQYVITLEDPD [SeqRBMlowT_239]
Chip Fluorescence (max) [9]: 3.22 | Chip Fluorescence (mean) [10]: 0.7373

Sequence: DVSDSPDVDLKIPQAR [SeqRBM_5022]
Chip Fluorescence (max) [1]: 0.6546 | Chip Fluorescence (mean) [2]: -0.1589

Sequence: VFWANPQFEVTLREDD [SeqRBM_5060]
Chip Fluorescence (max) [5]: 1.773 | Chip Fluorescence (mean) [6]: 0.03485

Sequence: RAYINPFMQFQIGGNH [SeqRBMlowT_4074]
Chip Fluorescence (max) [9]: 2.865 | Chip Fluorescence (mean) [10]: 0.3097

Sequence: SHKASPPTLNESPVTH [SeqRBM_2083]
Chip Fluorescence (max) [3]: -0.06558 | Chip Fluorescence (mean) [4]: -1.173

Sequence: KSKSIPKISIQSPVHH [SeqRBMlowT_1684]
Chip Fluorescence (max) [9]: 2.868 | Chip Fluorescence (mean) [10]: 0.2995

Sequence: PSEDQPGIVVHVCEEG [SeqRBMlowT_361]
Chip Fluorescence (max) [7]: 3.843 | Chip Fluorescence (mean) [8]: 0.9779

Sequence: LATQVPTFEITSPNSA [SeqNRG2_Pan_troglodytes]
Chip Fluorescence (max) [3]: 0.1795 | Chip Fluorescence (mean) [4]: -0.588

Sequence: TFWTNPQYVITLEEPD [SeqRBMlowT_2279]
Chip Fluorescence (max) [5]: 1.482 | Chip Fluorescence (mean) [6]: 0.5155

Sequence: VNLPIPAVQLADSGAY [SeqRBM_1417]
Chip Fluorescence (max) [9]: 2.788 | Chip Fluorescence (mean) [10]: 0.6718

Sequence: SKLMCVTLAIGSLSTS [SeqRBM_2514]
Chip Fluorescence (max) [11]: 1.101 | Chip Fluorescence (mean) [12]: -0.2904

Sequence: GGPGTPGRPGIHSAPS [SeqRBM_5424]
Chip Fluorescence (max) [5]: 1.6472 | Chip Fluorescence (mean) [6]: -0.88

Sequence: TSPDQPCIDVHQSESE [SeqRBM_4309]
Chip Fluorescence (max) [9]: 2.7949 | Chip Fluorescence (mean) [10]: 0.9383

Sequence: HSKSSPKLSISSPVHH [SeqRBMlowT_1628]
Chip Fluorescence (max) [9]: 3.1562 | Chip Fluorescence (mean) [10]: 1.038

Sequence: TGTLCKSGMLVSTRMS [SeqRBM_1323]
Chip Fluorescence (max) [1]: 0.8817 | Chip Fluorescence (mean) [2]: -0.07521

Sequence: STSSLPTFSFSSPPST [SeqRBMlowT_3479]
Chip Fluorescence (max) [3]: -1.235 | Chip Fluorescence (mean) [4]: -1.867

Sequence: RQPGQALLTLRGHKKQ [SeqRBMlowT_5816]
Chip Fluorescence (max) [5]: 1.5016 | Chip Fluorescence (mean) [6]: 0.5912

Sequence: PQLYQNVLGIGSFSLS [SeqRBMlowT_4804]
Chip Fluorescence (max) [1]: 0.4517 | Chip Fluorescence (mean) [2]: -0.7977

Sequence: KKMAPPCINIDPAPEN [SeqRBMlowT_2431]
Chip Fluorescence (max) [7]: 3.662 | Chip Fluorescence (mean) [8]: 0.8549

Sequence: PGDDQPGIIVHPCEEP [SeqRBMlowT_1949]
Chip Fluorescence (max) [9]: 2.883 | Chip Fluorescence (mean) [10]: 1.506

Sequence: TFNTNPQYTIQVVWPD [SeqRBM_7110]
Chip Fluorescence (max) [3]: -0.1833 | Chip Fluorescence (mean) [4]: -1.179

Sequence: NVLRISSARPDNRGVY [SeqCEACAM5_Musca_domestica]
Chip Fluorescence (max) [5]: 1.598 | Chip Fluorescence (mean) [6]: 0.6708

Sequence: PAGTGVGIVITVTEAE [SeqRBMlowT_157]
Chip Fluorescence (max) [11]: 1.221 | Chip Fluorescence (mean) [12]: -0.03937

Sequence: STSGTFPQTESSHKKQ [SeqRBMlowT_5831]
Chip Fluorescence (max) [5]: 1.58 | Chip Fluorescence (mean) [6]: 0.09302

Sequence: KKMAPPAINIDFAPTN [SeqRBMlowT_341]
Chip Fluorescence (max) [5]: 1.339 | Chip Fluorescence (mean) [6]: -0.05324

Sequence: PSDDQPGIIVHPAEED [SeqRBMlowT_1217]
Chip Fluorescence (max) [9]: 2.878 | Chip Fluorescence (mean) [10]: -0.2496

Sequence: TFHINPQLHLIVSDAD [SeqCAPN11_Daphnia_magna]
Chip Fluorescence (max) [3]: -0.5586 | Chip Fluorescence (mean) [4]: -0.9234

Sequence: VYWSNPQFIVKLEMVD [SeqRBM_6287]
Chip Fluorescence (max) [9]: 2.588 | Chip Fluorescence (mean) [10]: 1.027

Sequence: ADEANPEITITPAELP [SeqRBMlowT_369]
Chip Fluorescence (max) [5]: 1.463 | Chip Fluorescence (mean) [6]: 0.5736

Sequence: KKDVPPKILIEPPREF [SeqRBM_6642]
Chip Fluorescence (max) [1]: 0.9085 | Chip Fluorescence (mean) [2]: -0.7336

Sequence: TFWTNPQYKITLEEED [SeqRBMlowT_3204]
Chip Fluorescence (max) [9]: 3.2 | Chip Fluorescence (mean) [10]: 1.112

Sequence: RAYINPFMQFTDGGRR [SeqRBMlowT_4069]
Chip Fluorescence (max) [11]: 1.3045 | Chip Fluorescence (mean) [12]: 0.5135

Sequence: ATSEQPTFDLSSAMPT [SeqRBM_6206]
Chip Fluorescence (max) [3]: -1.8391 | Chip Fluorescence (mean) [4]: -2.255

Sequence: TFHLNPQYRITLEDPD [SeqCAPN11_Daphnia_magna_3]
Chip Fluorescence (max) [5]: 1.7985 | Chip Fluorescence (mean) [6]: 0.6671

Sequence: KKMAPPCISVHPPEED [SeqRBMlowT_5025]
Chip Fluorescence (max) [1]: 0.441 | Chip Fluorescence (mean) [2]: -1.335

Sequence: LKDESPEVRLNIISSL [SeqRBMlowT_1855]
Chip Fluorescence (max) [9]: 3.106 | Chip Fluorescence (mean) [10]: 1.095

Sequence: TFWTNPQYRIKLTEPD [SeqRBMlowT_234]
Chip Fluorescence (max) [1]: 0.5195 | Chip Fluorescence (mean) [2]: -0.7647

Sequence: KAYMCPAVSFQDGGRR [SeqRBMlowT_4017]
Chip Fluorescence (max) [5]: 1.6 | Chip Fluorescence (mean) [6]: -0.3289

Sequence: TFWTNPQFRVKLEEPD [SeqRBMlowT_201]
Chip Fluorescence (max) [1]: 0.5145 | Chip Fluorescence (mean) [2]: -0.7212

Sequence: PSSCTPHLYARVHKGQ [SeqRBM_1451]
Chip Fluorescence (max) [3]: 0.2872 | Chip Fluorescence (mean) [4]: -1.296

Sequence: DAHACAVLGIGSFSLL [SeqRBM_9753]
Chip Fluorescence (max) [11]: 1.031 | Chip Fluorescence (mean) [12]: -0.08931

Sequence: KKMSPPCIDVHPLDSA [SeqRBM_2282]
Chip Fluorescence (max) [9]: 2.64 | Chip Fluorescence (mean) [10]: 0.293
